According to patent US10072026B2, “Crystalline form of 3-((1R,3s,5S)-3-((7-((5-methyl-1H-pyrazol-3-yl)amino)-1,6-naphthyridin-5-yl)amino)-8-azabicyclo[3.2.1]octan-8-yl)propanenitrile” (priority 2015, dated 2018):
Where two headings read alike, the source gives them in different places.

Assays:
JAK1 = JAK1 (Homo sapiens (Human), UniProt P23458); assay: LanthaScreen JAK biochemical assay (JAK1)
JAK3 = JAK3 (Homo sapiens (Human), UniProt P52333); assay: LanthaScreen JAK biochemical assay (JAK3)
[1] = system: IL-4 induced STAT6 phosphorylation in THP-1 human monocytic cells; assay: Cellular JAK potency assay, THP-1
[2] = system: IL-13 induced STAT6 phosphorylation in BEAS-2B human lung epithelial cells; assay: AlphaScreen cellular JAK potency assay, BEAS-2B; conditions: for IC50: Homo sapiens, BEAS-2B, read-out: BEAS2B pIC50 (converted); for BEAS2B pIC50: BEAS-2B cells, IL-13 induced STAT6 phosphorylation
Tyk2 = Tyk2 (Homo sapiens (Human), UniProt P29597); assay: LanthaScreen JAK biochemical assay (Tyk2)
Sequence of Tyk2 (P29597 whole entry): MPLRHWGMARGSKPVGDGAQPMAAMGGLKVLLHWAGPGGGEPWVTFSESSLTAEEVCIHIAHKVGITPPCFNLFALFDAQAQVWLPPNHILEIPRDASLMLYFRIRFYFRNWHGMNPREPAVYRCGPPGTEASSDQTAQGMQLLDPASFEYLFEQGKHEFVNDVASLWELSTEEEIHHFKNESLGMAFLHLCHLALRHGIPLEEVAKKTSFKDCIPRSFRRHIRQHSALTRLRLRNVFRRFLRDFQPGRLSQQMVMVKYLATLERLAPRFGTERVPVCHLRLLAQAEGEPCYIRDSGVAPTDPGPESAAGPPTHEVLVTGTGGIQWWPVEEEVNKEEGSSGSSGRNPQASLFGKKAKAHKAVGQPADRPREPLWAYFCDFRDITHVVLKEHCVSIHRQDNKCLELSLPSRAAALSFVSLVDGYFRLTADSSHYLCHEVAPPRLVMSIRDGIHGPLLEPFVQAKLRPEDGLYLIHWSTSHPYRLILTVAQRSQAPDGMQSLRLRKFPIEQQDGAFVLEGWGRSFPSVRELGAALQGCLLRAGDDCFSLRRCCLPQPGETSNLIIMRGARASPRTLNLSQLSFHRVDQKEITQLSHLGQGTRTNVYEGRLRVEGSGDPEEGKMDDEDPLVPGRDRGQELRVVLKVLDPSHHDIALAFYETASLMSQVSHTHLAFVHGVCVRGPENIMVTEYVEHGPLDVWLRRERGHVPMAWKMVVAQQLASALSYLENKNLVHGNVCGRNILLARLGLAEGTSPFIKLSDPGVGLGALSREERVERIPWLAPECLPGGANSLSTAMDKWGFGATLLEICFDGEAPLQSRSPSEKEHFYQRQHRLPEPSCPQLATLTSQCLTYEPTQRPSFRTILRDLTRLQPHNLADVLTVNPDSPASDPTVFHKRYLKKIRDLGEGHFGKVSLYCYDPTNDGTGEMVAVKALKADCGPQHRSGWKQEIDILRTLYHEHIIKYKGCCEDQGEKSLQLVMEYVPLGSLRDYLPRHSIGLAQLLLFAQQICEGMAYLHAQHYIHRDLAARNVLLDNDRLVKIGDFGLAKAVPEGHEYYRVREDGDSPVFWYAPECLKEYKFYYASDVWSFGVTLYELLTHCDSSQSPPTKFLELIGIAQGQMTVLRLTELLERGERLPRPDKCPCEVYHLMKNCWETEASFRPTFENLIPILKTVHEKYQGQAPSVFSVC

JAK2 = JAK2 (Homo sapiens (Human), UniProt O60674); assay: LanthaScreen JAK biochemical assay (JAK2)
Sequence of JAK2 (O60674 whole entry): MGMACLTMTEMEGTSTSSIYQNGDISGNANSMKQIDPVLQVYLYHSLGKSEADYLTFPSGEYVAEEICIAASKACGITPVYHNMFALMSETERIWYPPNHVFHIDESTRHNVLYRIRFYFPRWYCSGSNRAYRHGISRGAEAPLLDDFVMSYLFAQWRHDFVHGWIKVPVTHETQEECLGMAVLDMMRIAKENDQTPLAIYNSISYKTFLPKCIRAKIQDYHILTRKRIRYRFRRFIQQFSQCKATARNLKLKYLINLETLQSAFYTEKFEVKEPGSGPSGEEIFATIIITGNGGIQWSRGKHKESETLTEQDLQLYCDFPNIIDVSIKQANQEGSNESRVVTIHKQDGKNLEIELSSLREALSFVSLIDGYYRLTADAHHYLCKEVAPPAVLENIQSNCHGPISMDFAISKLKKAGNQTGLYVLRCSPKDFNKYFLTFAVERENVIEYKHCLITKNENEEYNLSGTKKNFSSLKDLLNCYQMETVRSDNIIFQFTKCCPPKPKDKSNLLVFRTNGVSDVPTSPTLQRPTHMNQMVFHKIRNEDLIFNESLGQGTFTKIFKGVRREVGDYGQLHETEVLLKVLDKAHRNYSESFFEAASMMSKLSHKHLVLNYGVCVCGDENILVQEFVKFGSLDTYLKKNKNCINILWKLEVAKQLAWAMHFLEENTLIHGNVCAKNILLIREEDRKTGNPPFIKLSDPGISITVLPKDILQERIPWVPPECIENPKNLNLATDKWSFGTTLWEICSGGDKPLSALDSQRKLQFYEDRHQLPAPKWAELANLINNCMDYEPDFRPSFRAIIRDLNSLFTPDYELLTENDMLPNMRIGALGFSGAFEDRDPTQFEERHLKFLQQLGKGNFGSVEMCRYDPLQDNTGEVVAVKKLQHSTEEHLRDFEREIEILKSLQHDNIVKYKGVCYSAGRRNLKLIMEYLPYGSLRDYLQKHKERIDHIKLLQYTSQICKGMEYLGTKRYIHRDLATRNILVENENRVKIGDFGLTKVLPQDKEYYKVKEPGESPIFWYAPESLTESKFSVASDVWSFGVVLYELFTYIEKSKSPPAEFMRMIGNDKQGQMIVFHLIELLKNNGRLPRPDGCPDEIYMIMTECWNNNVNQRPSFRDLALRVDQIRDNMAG

[3] = THP-1 cells, IL-4 induced STAT6 phosphorylation
[4] = read-out: JAK 1 (pKi) (converted)
[5] = Homo sapiens, THP-1, read-out: THP-1 IL4 pIC50 (converted)
[6] = read-out: Tyk 2 (pKi) (converted)
[7] = read-out: JAK 2 (pKi) (converted)
[8] = IL-4 induced STAT6 phosphorylation, THP-1 cells

Sequence of JAK1 (P23458 whole entry): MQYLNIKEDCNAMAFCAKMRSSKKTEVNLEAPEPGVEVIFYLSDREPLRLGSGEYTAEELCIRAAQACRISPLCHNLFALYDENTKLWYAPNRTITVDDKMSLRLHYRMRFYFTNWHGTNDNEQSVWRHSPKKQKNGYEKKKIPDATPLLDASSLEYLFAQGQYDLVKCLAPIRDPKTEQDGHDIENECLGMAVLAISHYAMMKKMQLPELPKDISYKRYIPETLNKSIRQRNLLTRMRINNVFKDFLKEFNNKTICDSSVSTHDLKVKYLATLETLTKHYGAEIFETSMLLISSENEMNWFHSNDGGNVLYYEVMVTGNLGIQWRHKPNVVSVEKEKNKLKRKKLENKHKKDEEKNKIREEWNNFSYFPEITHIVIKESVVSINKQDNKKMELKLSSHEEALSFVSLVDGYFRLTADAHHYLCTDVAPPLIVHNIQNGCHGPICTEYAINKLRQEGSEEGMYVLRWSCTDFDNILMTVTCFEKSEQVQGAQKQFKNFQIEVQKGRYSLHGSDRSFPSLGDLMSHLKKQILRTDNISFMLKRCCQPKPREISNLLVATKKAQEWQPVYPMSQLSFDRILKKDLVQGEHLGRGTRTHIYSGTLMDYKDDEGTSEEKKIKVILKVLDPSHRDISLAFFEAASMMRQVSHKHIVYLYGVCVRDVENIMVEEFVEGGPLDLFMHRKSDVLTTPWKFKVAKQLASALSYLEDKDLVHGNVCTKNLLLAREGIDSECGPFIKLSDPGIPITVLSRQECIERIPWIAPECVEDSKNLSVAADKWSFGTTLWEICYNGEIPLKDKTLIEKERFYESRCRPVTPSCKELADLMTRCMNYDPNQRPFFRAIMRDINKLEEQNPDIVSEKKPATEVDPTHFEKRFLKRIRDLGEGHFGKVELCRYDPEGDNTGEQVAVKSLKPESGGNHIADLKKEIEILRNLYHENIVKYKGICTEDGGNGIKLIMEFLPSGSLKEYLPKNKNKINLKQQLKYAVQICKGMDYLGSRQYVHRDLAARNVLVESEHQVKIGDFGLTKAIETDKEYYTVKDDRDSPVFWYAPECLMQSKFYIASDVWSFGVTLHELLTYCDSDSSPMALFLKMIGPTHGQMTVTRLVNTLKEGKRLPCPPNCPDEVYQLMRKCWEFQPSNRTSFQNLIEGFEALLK

Structure (SMILES): COc1cnc2cc(Nc3cc(C)[nH]n3)nc(N[C@@H]3C[C@H]4CC[C@@H](C3)N4CCF)c2c1 [Example 6-13]
- JAK 1 (pKi) (JAK1): B (B represents a pKi value between 9 and 10 (Ki between 1 nM and 0.1 nM))
- JAK 3 (pKi) (JAK3): C (C represents a pKi value between 7 and 9 (Ki between 100 nM and 1 nM))
- THP-1 IL4 pIC50 [1, 3]: B (B represents a pEC50 value between 6.7 and 7.5 (EC50 between 200 nM and 32 nM))

Structure (SMILES): COc1ccc2c(N[C@@H]3C[C@H]4CC[C@@H](C3)N4S(C)(=O)=O)nc(Nc3cc(C)[nH]n3)cc2n1 [Example 5-9]
- Ki (JAK1; [4]): 0.1 to 1 nM
- IC50 [2]: < 31.6 nM
- IC50 [1, 5]: < 31.6 nM
- Ki (Tyk2; [6]): 0.1 to 1 nM
- Ki (JAK2; [7]): 0.1 to 1 nM

Structure (SMILES): Cc1cc(Nc2cc3ncc(S(C)(=O)=O)cc3c(N[C@@H]3C[C@H]4CC[C@@H](C3)N4CCC(F)(F)F)n2)n[nH]1 [Example 6-56]
- JAK 1 (pKi) (JAK1): B (B represents a pKi value between 9 and 10 (Ki between 1 nM and 0.1 nM))
- BEAS2B pIC50 [2]: B (B represents a pEC50 value between 6.7 and 7.5 (EC50 between 200 nM and 32 nM))
- THP-1 IL4 pIC50 [1, 3]: B (B represents a pEC50 value between 6.7 and 7.5 (EC50 between 200 nM and 32 nM))
- Tyk 2 (pKi) (Tyk2): B (B represents a pKi value between 9 and 10 (Ki between 1 nM and 0.1 nM))
- JAK 2 (pKi) (JAK2): A (A represents a pKi value≥10 (Ki≤0.1 nM))

Structure (SMILES): C=CCOC(=O)N1[C@@H]2CC[C@H]1C[C@H](Nc1nc(Nc3cc(C)[nH]n3)cc3ncc(OC)cc13)C2 [Example 6-19]
- JAK 1 (pKi) (JAK1): B (B represents a pKi value between 9 and 10 (Ki between 1 nM and 0.1 nM))
- JAK 3 (pKi) (JAK3): C (C represents a pKi value between 7 and 9 (Ki between 100 nM and 1 nM))
- THP-1 IL4 pIC50 [1, 3]: B (B represents a pEC50 value between 6.7 and 7.5 (EC50 between 200 nM and 32 nM))

Structure (SMILES): COc1cnc2cc(Nc3cc(C)[nH]n3)nc(N[C@@H]3C[C@H]4CC[C@@H](C3)N4S(=O)(=O)CCCC#N)c2c1 [Example 6-21]
- JAK 1 (pKi) (JAK1): B (B represents a pKi value between 9 and 10 (Ki between 1 nM and 0.1 nM))
- BEAS2B pIC50 [2]: B (B represents a pEC50 value between 6.7 and 7.5 (EC50 between 200 nM and 32 nM))
- Tyk 2 (pKi) (Tyk2): B (B represents a pKi value between 9 and 10 (Ki between 1 nM and 0.1 nM))
- JAK 2 (pKi) (JAK2): B (B represents a pKi value between 9 and 10 (Ki between 1 nM and 0.1 nM))

Structure (SMILES): COc1cnc2cc(Nc3cc(C)[nH]n3)nc(N[C@@H]3C[C@H]4CCC[C@@H](C3)N4S(C)(=O)=O)c2c1 [Example 6-29]
- JAK 1 (pKi) (JAK1): B (B represents a pKi value between 9 and 10 (Ki between 1 nM and 0.1 nM))
- BEAS2B pIC50 [2]: A (A represents a pEC50 value≥7.5 (EC50≤32 nM))
- THP-1 IL4 pIC50 [1, 3]: A (A represents a pEC50 value≥7.5 (EC50≤32 nM))
- Tyk 2 (pKi) (Tyk2): B (B represents a pKi value between 9 and 10 (Ki between 1 nM and 0.1 nM))
- JAK 2 (pKi) (JAK2): B (B represents a pKi value between 9 and 10 (Ki between 1 nM and 0.1 nM))

Structure (SMILES): COc1ccc2c(N[C@@H]3C[C@H]4CC[C@@H](C3)N4CCF)nc(Nc3cc(C)[nH]n3)cc2n1 [Example 5-3]
- JAK 1 (pKi) (JAK1): B (B represents a pKi value between 9 and 10 (Ki between 1 nM and 0.1 nM))
- JAK 3 (pKi) (JAK3): C (C represents a pKi value between 7 and 9 (Ki between 100 nM and 1 nM))
- THP-1 IL4 pIC50 [1, 8]: B (B represents a pEC50 value between 6.7 and 7.5 (EC50 between 200 nM and 32 nM))

Structure (SMILES): Cc1cc(Nc2cc3nc(CN4CCOCC4)ccc3c(N[C@@H]3C[C@H]4CC[C@@H](C3)N4S(=O)(=O)c3cncc(F)c3)n2)n[nH]1 [Example 5-20]
- Ki (JAK1; [4]): 0.1 to 1 nM
- IC50 [2]: 31.6 to 200 nM
- IC50 [1, 5]: < 31.6 nM
- Ki (Tyk2; [6]): 0.1 to 1 nM
- Ki (JAK2; [7]): 0.1 to 1 nM

Structure (SMILES): Cc1cc(Nc2cc3nc(CN4CCN(C)CC4)ccc3c(N[C@@H]3C[C@H]4CC[C@@H](C3)N4CC(C)C)n2)n[nH]1 [Example 5-38]
- JAK 3 (pKi) (JAK3): C (C represents a pKi value between 7 and 9 (Ki between 100 nM and 1 nM))

Structure (SMILES): Cc1cc(Nc2cc3nc(CN4CCN(C)CC4)ccc3c(N[C@@H]3C[C@H]4CC[C@@H](C3)N4CCC#N)n2)n[nH]1 [Example 5-37]
- JAK 3 (pKi) (JAK3): B (B represents a pKi value between 9 and 10 (Ki between 1 nM and 0.1 nM))
- THP-1 IL4 pIC50 [1, 8]: B (B represents a pEC50 value between 6.7 and 7.5 (EC50 between 200 nM and 32 nM))

Structure (SMILES): Cc1cc(Nc2cc3ncccc3c(N[C@@H]3C[C@H]4CC[C@@H](C3)N4CC(F)(F)F)n2)n[nH]1 [Example 1-14]
- Ki (JAK1): 0.1 to 1 nM
- IC50 [2]: < 31.6 nM
- IC50 [1, 5]: < 31.6 nM
- Ki (Tyk2): 0.1 to 1 nM
- Ki (JAK2): 0.1 to 1 nM
